Experimental data taken from ChEMBL document CHEMBL6109147, “Discovery of Potent STING Inhibitors Bearing a Difluorobenzodioxol Structural Motif as Potent Anti-Inflammatory Agents” (J Med Chem, 2025).
The source made the active and inactive calls. The calls are words filed in the database; no cut-off is given here.

Key:
[1] = Cytotoxicity against mouse RAW-Lucia ISG cells assessed as cell viability measured after 24 hrs by CCK8 assay; type: toxicity, cell-based
[2] = Metabolic stability in human liver microsomes assessed as half life; type: ADME, Microsome
[3] = Oral bioavailability in Sprague-Dawley rat at 3 mg/kg; type: ADME, organism-based; settings: in vivo
[4] = biological target: T1, Stimulator of interferon genes protein (Mus musculus) (UniProt Q3TBT3); assay: Inhibition of STING downstream signalling in mouse RAW264.7 cells assessed as inhibition of […] induced IP-10 secretion level at 0.3 to 3 uM pre-treated for 1 hr followed by stimulated with […] measured after 24 hrs by ELISA; type: cell-based; settings: dose 0.3-3 µM, time 25.0 hrs
T1 sequence (whole entry): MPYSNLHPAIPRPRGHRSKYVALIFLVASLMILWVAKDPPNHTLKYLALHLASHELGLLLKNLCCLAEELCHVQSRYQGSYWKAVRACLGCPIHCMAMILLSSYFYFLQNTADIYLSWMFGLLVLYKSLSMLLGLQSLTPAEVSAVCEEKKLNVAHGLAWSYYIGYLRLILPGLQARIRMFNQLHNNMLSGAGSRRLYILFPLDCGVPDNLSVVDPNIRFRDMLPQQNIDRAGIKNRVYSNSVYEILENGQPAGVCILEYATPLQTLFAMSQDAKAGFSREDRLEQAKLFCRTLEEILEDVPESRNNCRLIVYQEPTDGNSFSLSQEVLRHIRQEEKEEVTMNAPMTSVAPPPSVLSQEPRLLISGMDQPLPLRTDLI

[5] = Metabolic stability in rat liver microsomes assessed as liver intrinsic clearance; type: ADME, Microsome
[6] = tested on: Mus musculus; assay: Anti-inflammatory activity in TREX1 D18N mouse model assessed as reduction in IL6 mRNA expression in kidney at 10 mg/kg, ip measured after 2 weeks; type: functional, organism-based
[7] = tested on: Mus musculus; assay: Anti-inflammatory activity against MSA-2 induced C57BL/6 mouse inflammation model assessed as inhibition of MSA-2 induced IP-10 level in kidney at 10 mg/kg, ip pre-treated for 1 hr followed by stimulated with MSA-2 for 4 hrs by ELISA; type: functional, organism-based; settings: time 5.0 hrs
[8] = biological target: Stimulator of interferon genes protein (Homo sapiens) (UniProt Q86WV6); assay: Inhibition of STING downstream signalling in human THP1-Dual cells assessed as inhibition of MSA-2 induced IP-10 mRNA expression at 0.3 to 3 uM pre-treated for 1 hr followed by stimulated with MSA-2 measured after 4 hrs by real-time PCR analysis; type: cell-based; settings: dose 0.3-3 µM, time 5.0 hrs
Stimulator of interferon genes protein (Homo sapiens), sequence (Q86WV6 whole entry): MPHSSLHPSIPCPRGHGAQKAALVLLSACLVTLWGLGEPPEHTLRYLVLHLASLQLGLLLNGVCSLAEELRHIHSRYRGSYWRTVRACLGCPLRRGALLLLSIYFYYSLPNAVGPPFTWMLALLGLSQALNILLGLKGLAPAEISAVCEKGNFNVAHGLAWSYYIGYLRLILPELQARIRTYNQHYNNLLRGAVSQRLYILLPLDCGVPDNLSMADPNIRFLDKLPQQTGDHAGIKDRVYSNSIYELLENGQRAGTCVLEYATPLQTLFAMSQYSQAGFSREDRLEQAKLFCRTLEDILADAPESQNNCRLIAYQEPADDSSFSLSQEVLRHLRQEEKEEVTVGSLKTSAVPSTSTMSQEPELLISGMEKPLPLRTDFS

[9] = tested on: Mus musculus; assay: Anti-inflammatory activity against Cisplatin induced C57BL/6 STING-KO mouse kidney inflammation model assessed as prevention of Cisplatin induced interstitial vacuolation at 5 mg/kg, ip treated for 3 days; type: functional, organism-based; settings: time 3.0 day

half-life [2]: 33.8 min | bioavailability [3]: 12.7% | inhibition [4]: Active | CLH [5]: 64.8 µL/min/mg | inhibition [8]: Active
SMILES: N#CC/C=C/c1ccc2[nH]cc(NC(=O)Nc3ccc4c(c3)OC(F)(F)O4)c2c1
Activity [1]: Non-toxic | Activity [6]: Active | inhibition [7]: Active | Activity [9]: inactive
